What is called IC50 is the point on the concentration scale where inhibition reaches its midpoint.

Consider 9 compounds from patent US6747035B2, “1-alkyl or 1-cycloalkyltriazolo[4,3-a]quinazolin-5-ones as phosphodiesterase inhibitors” (Warner-Lambert LLC, priority 2001, dated 2004).

Tested on in one series: not given
Assay: not given
The settings on record: dose of 20 mg as a single intake; cited from earlier work.
`COc1ccc([C@]2(C#N)CC[C@@H](C(=O)O)CC2)cc1OC1CCCC1` [Ariflo]: the undesirable effects result was “significant undesirable effects, such as nausea and vomiting”.

For the next series, the system named is PDE4. Nature of the series: PDE4 enzyme inhibition (IC50), enzyme from cytosolic preparation of U937 cell line. Format: biochemical, human. The settings on record: inhibitory activity on PDE4; substrate cAMP 0.25 μM; reaction stopped after 10 minutes. The procedure:
The capacity of the compounds of formula (I) of the invention to inhibit cyclic nucleotide phosphodiesterases is evaluated by measuring their IC50 (concentration required to inhibit 50% of the enzymatic activity).
The type 4 phosphodiesterases are obtained from a cytosolic preparation extracted from a cell line U937 of human origin according to the method adapted from T. J. Torphy et al., J. Pharm. Exp. Ther. (1992), 263: 1195-1205.
The measurement of the enzymatic activity of the various types of PDE, and in particular the PDE4, is carried out according to a method adapted from W. J. Thompson et al., Advances in Cyclic Nucleotide Research, (1979) Vol. 10: 69-92, ed. G. Brooker et al. Raven Press, NY.
The substrate used is cGMP for PDE1 and PDE5 and cAMP for PDE 3 and PDE 4. The substrate concentration was 0.2 μM for PDE 1, PDE 3 and PDE 5, 0.25 μM for PDE 4.
The enzymatic reaction was stopped after 1 hour for PDE 1, PDE 3 and PDE 5 and 10 minutes for PDE 4.
The following table illustrates the inhibitory activity on PDE4 of some of the compounds of formula (I): […]
In turn, `CC(=O)Nc1ccc2c(c1)c(=O)n(Cc1ccccc1)c1nnc(C3CCCC3)n21` [Example 2, 7-acetamido-4-benzyl-1-cyclopentyl-4H-[1,2,4]triazolo[4,3-a]quinazolin-5-one] registered an IC50 of 8500 nM.
Still for that read-out and setting: the figure for `CC(=O)Nc1ccc2c(c1)c(=O)n(Cc1ccccc1)c1nnc(C)n21` [Example 4, 7-acetamido-4-benzyl-1-methyl-4H-[1,2,4]triazolo[4,3-a]quinazolin-5-one] is 31000 nM; for `CC(=O)N(C)c1ccc2c(c1)c(=O)n(Cc1ccccc1)c1nnc(C3CCCC3)n21` [Example 5, 4-benzyl-1-cyclopentyl-7-(N-methylacetamido)-4H-[1,2,4]triazolo[4,3-a]quinazolin-5-one] it is 2700 nM.
The same measure, in the same setting: the figure for `CNc1ccc2c(c1)c(=O)n(Cc1ccccc1)c1nnc(C3CCCC3)n21` [Example 7, 4-benzyl-1-cyclopentyl-7-methylamino-4H-[1,2,4]triazolo[4,3-a]quinazolin-5-one] is 75 nM; for `CC(=O)N(C)c1ccc2c(c1)c(=O)n(Cc1ccc(C#N)cc1)c1nnc(C3CCCC3)n21` [Example 8, 4-(4-cyanobenzyl)-1-cyclopentyl-7-(N-methylacetamido)-4H-[1,2,4]triazolo[4,3-a]quinazolin-5-one] it is 1300 nM.
`CNc1ccc2c(c1)c(=O)n(Cc1ccc(C#N)cc1)c1nnc(C3CCCC3)n21` [Example 9, 4-(4-cyanobenzyl)-1-cyclopentyl-7-(N-methylamino)-4H-[1,2,4]triazolo[4,3-a]quinazolin-5-one] yielded an IC50 of 2 nM.
The same measure, in the same setting: the figure for `O=c1c2cc(Br)ccc2n2c(C3CCCC3)nnc2n1Cc1ccccc1` [Example 10, 4-benzyl-7-bromo-1-cyclopentyl-4H-[1,2,4]triazolo[4,3-a]quinazolin-5-one] is 61 nM; for `Cc1nnc2n(Cc3ccccc3)c(=O)c3cc(Br)ccc3n12` [Example 11, 4-benzyl-7-bromo-1-methyl-4H-[1,2,4]triazolo[4,3-a]quinazolin-5-one] it is 1000 nM.
